Laboratory results reported in article PMC4441267.

Assays:
[1] = CuAAC macrocyclisation to 1,4-triazole (CuI 2 eq, DIPEA 3 eq), Boc retained; settings: THF (reflux), 1.2 mM, 66.0 °C, 18.0 h
[2] = CuAAC macrocyclisation of azide/terminal alkyne linear peptidomimetics to 1,4-triazole (CuI 2 eq, DIPEA 3 eq, Ar-degassed), then Boc removal (TMSCl/MeOH GP4; HCl/dioxane GP5 for A13w, J13w); settings: THF (reflux), 1.2 mM, 66.0 °C, 18.0 h, 2 steps

## COC(=O)[C@@H]1CCCCn2cc(nn2)CNC(=O)NCC[C@H](NC(=O)OC(C)(C)C)C(=O)N[C@H](C(=O)OC)CCC(=O)N1 [Boc-Dab(CONH-propargyl)-Glu(gamma-Lys(N3)-OMe)-OMe]
[1]; from C#CCNC(=O)NCC[C@H](NC(=O)OC(C)(C)C)C(=O)N[C@@H](CCC(=O)N[C@@H](CCCCN=[N+]=[N-])C(=O)OC)C(=O)OC, 22-membered ring
  ring closure, isolated yield: 67%

## COC(=O)[C@@H]1CCCCn2cc(nn2)CCC(=O)NC[C@H](NC(=O)OC(C)(C)C)C(=O)N[C@H](C(=O)OC)CCC(=O)N1 [Boc-Dap(4-pentynoyl)-Glu(gamma-Lys(N3)-OMe)-OMe]
[1]; from C#CCCC(=O)NC[C@H](NC(=O)OC(C)(C)C)C(=O)N[C@@H](CCC(=O)N[C@@H](CCCCN=[N+]=[N-])C(=O)OC)C(=O)OC, 21-membered ring
  ring closure, isolated yield: 94%

## COC(=O)[C@@H]1CCCCn2cc(nn2)CCCC(=O)NC[C@H](NC(=O)OC(C)(C)C)C(=O)N[C@H](C(=O)OC)CCC(=O)N1 [Boc-Dap(5-hexynoyl)-Glu(gamma-Lys(N3)-OMe)-OMe]
[1]; from C#CCCCC(=O)NC[C@H](NC(=O)OC(C)(C)C)C(=O)N[C@@H](CCC(=O)N[C@@H](CCCCN=[N+]=[N-])C(=O)OC)C(=O)OC, 22-membered ring
  ring closure, isolated yield: 69%

## COC(=O)[C@@H]1CCCCn2cc(nn2)CNC(=O)NC[C@H](NC(=O)OC(C)(C)C)C(=O)N[C@H](C(=O)OC)CCC(=O)N1 [Boc-Dap(CONH-propargyl)-Glu(gamma-Lys(N3)-OMe)-OMe]
[1]; from C#CCNC(=O)NC[C@H](NC(=O)OC(C)(C)C)C(=O)N[C@@H](CCC(=O)N[C@@H](CCCCN=[N+]=[N-])C(=O)OC)C(=O)OC, 21-membered ring
  ring closure, isolated yield: 99%

## COC(=O)[C@@H]1CCCCn2cc(nn2)CCC(=O)NCCCC[C@H](NC(=O)OC(C)(C)C)C(=O)N[C@H](C(=O)OC)CCC(=O)N1 [Boc-Lys(4-pentynoyl)-Glu(gamma-Lys(N3)-OMe)-OMe]
[1]; from C#CCCC(=O)NCCCC[C@H](NC(=O)OC(C)(C)C)C(=O)N[C@@H](CCC(=O)N[C@@H](CCCCN=[N+]=[N-])C(=O)OC)C(=O)OC, 24-membered ring
  ring closure, isolated yield: 69%

## COC(=O)[C@@H]1CCCCn2cc(nn2)CCCC(=O)NCCCC[C@H](NC(=O)OC(C)(C)C)C(=O)N[C@H](C(=O)OC)CCC(=O)N1 [Boc-Lys(5-hexynoyl)-Glu(gamma-Lys(N3)-OMe)-OMe]
[1]; from C#CCCCC(=O)NCCCC[C@H](NC(=O)OC(C)(C)C)C(=O)N[C@@H](CCC(=O)N[C@@H](CCCCN=[N+]=[N-])C(=O)OC)C(=O)OC, 25-membered ring
  ring closure, isolated yield: 70%

## COC(=O)[C@@H]1CCCCn2cc(nn2)CNC(=O)NCCCC[C@H](NC(=O)OC(C)(C)C)C(=O)N[C@H](C(=O)OC)CCC(=O)N1 [Boc-Lys(CONH-propargyl)-Glu(gamma-Lys(N3)-OMe)-OMe]
[1]; from C#CCNC(=O)NCCCC[C@H](NC(=O)OC(C)(C)C)C(=O)N[C@@H](CCC(=O)N[C@@H](CCCCN=[N+]=[N-])C(=O)OC)C(=O)OC, 24-membered ring
  ring closure, isolated yield: 62%

## COC(=O)[C@@H]1CCCCn2cc(nn2)CCC(=O)NCCC[C@H](NC(=O)OC(C)(C)C)C(=O)N[C@H](C(=O)OC)CCC(=O)N1 [Boc-Orn(4-pentynoyl)-Glu(gamma-Lys(N3)-OMe)-OMe]
[1]; from C#CCCC(=O)NCCC[C@H](NC(=O)OC(C)(C)C)C(=O)N[C@@H](CCC(=O)N[C@@H](CCCCN=[N+]=[N-])C(=O)OC)C(=O)OC, 23-membered ring
  ring closure, isolated yield: 71%

## COC(=O)[C@@H]1CCCCn2cc(nn2)CCCC(=O)NCCC[C@H](NC(=O)OC(C)(C)C)C(=O)N[C@H](C(=O)OC)CCC(=O)N1 [Boc-Orn(5-hexynoyl)-Glu(gamma-Lys(N3)-OMe)-OMe]
[1]; from C#CCCCC(=O)NCCC[C@H](NC(=O)OC(C)(C)C)C(=O)N[C@@H](CCC(=O)N[C@@H](CCCCN=[N+]=[N-])C(=O)OC)C(=O)OC, 24-membered ring
  ring closure, isolated yield: 99%

## COC(=O)[C@@H]1CCCCNC(=O)[C@H](Cc2ccccc2)n2cc(nn2)CCCC(=O)NCCC[C@H](NC(=O)OC(C)(C)C)C(=O)N1 [Boc-Orn(5-hexynoyl)-Lys(N3-Phe)-OMe]
[2]; from C#CCCCC(=O)NCCC[C@H](NC(=O)OC(C)(C)C)C(=O)N[C@@H](CCCCNC(=O)[C@H](Cc1ccccc1)N=[N+]=[N-])C(=O)OC, 22-membered ring
  ring closure, yield over several steps: 99%

## COC(=O)[C@@H]1CCCn2cc(nn2)CCCC(=O)NCCC[C@H](NC(=O)OC(C)(C)C)C(=O)N1 [Boc-Orn(5-hexynoyl)-Orn(N3)-OMe]
[2]; from C#CCCCC(=O)NCCC[C@H](NC(=O)OC(C)(C)C)C(=O)N[C@@H](CCCN=[N+]=[N-])C(=O)OC, 18-membered ring
  ring closure, yield over several steps: 71%

## COC(=O)[C@@H]1CNC(=O)[C@H](Cc2ccccc2)n2cc(nn2)CNC(=O)NCCC[C@H](NC(=O)OC(C)(C)C)C(=O)N1 [Boc-Orn(CONH-propargyl)-Dap(N3-Phe)-OMe]
[2]; from C#CCNC(=O)NCCC[C@H](NC(=O)OC(C)(C)C)C(=O)N[C@@H](CNC(=O)[C@H](Cc1ccccc1)N=[N+]=[N-])C(=O)OC, 18-membered ring
  ring closure, yield over several steps: 96%

## COC(=O)[C@@H]1CCCCn2cc(nn2)CNC(=O)NCCC[C@H](NC(=O)OC(C)(C)C)C(=O)N[C@H](C(=O)OC)CCC(=O)N1 [Boc-Orn(CONH-propargyl)-Glu(gamma-Lys(N3)-OMe)-OMe]
[1]; from C#CCNC(=O)NCCC[C@H](NC(=O)OC(C)(C)C)C(=O)N[C@@H](CCC(=O)N[C@@H](CCCCN=[N+]=[N-])C(=O)OC)C(=O)OC, 23-membered ring
  ring closure, isolated yield: 60%

## COC(=O)[C@@H]1CCCCn2cc(nn2)CNC(=O)NCCC[C@H](NC(=O)OC(C)(C)C)C(=O)N1 [Boc-Orn(CONH-propargyl)-Lys(N3)-OMe]
[2]; from C#CCNC(=O)NCCC[C@H](NC(=O)OC(C)(C)C)C(=O)N[C@@H](CCCCN=[N+]=[N-])C(=O)OC, 18-membered ring
  ring closure, yield over several steps: 99%

## COC(=O)[C@@H]1CCCCNC(=O)[C@H](Cc2ccccc2)n2cc(nn2)CNC(=O)NCCC[C@H](NC(=O)OC(C)(C)C)C(=O)N1 [Boc-Orn(CONH-propargyl)-Lys(N3-Phe)-OMe]
[2]; from C#CCNC(=O)NCCC[C@H](NC(=O)OC(C)(C)C)C(=O)N[C@@H](CCCCNC(=O)[C@H](Cc1ccccc1)N=[N+]=[N-])C(=O)OC, 21-membered ring
  ring closure, yield over several steps: 87%

## COC(=O)[C@@H]1CCCn2cc(nn2)CNC(=O)NCCC[C@H](NC(=O)OC(C)(C)C)C(=O)N1 [Boc-Orn(CONH-propargyl)-Orn(N3)-OMe]
[2]; from C#CCNC(=O)NCCC[C@H](NC(=O)OC(C)(C)C)C(=O)N[C@@H](CCCN=[N+]=[N-])C(=O)OC, 17-membered ring
  ring closure, yield over several steps: 99%

## COC(=O)[C@@H]1CCCn2cc(nn2)CCCC(=O)Nc2ccc(cc2)C[C@H](NC(=O)OC(C)(C)C)C(=O)N[C@@H](C)C(=O)N1 [Boc-Phe(4-NH-5-hexynoyl)-Ala-Orn(N3)-OMe]
[2]; from C#CCCCC(=O)Nc1ccc(C[C@H](NC(=O)OC(C)(C)C)C(=O)N[C@@H](C)C(=O)N[C@@H](CCCN=[N+]=[N-])C(=O)OC)cc1, 23-membered ring
  ring closure, yield over several steps: 21%

## COC(=O)[C@@H]1CCCCn2cc(nn2)CCCC(=O)Nc2ccc(cc2)C[C@H](NC(=O)OC(C)(C)C)C(=O)N[C@H](C(=O)OC)CCC(=O)N1 [Boc-Phe(4-NH-5-hexynoyl)-Glu(gamma-Lys(N3)-OMe)-OMe]
[1]; from C#CCCCC(=O)Nc1ccc(C[C@H](NC(=O)OC(C)(C)C)C(=O)N[C@@H](CCC(=O)N[C@@H](CCCCN=[N+]=[N-])C(=O)OC)C(=O)OC)cc1, 26-membered ring
  ring closure, isolated yield: 12%

## COC(=O)[C@@H]1CCCCNC(=O)[C@H](Cc2ccccc2)n2cc(nn2)CCCC(=O)Nc2ccc(cc2)C[C@H](NC(=O)OC(C)(C)C)C(=O)N1 [Boc-Phe(4-NH-5-hexynoyl)-Lys(N3-Phe)-OMe]
[2]; from C#CCCCC(=O)Nc1ccc(C[C@H](NC(=O)OC(C)(C)C)C(=O)N[C@@H](CCCCNC(=O)[C@H](Cc2ccccc2)N=[N+]=[N-])C(=O)OC)cc1, 24-membered ring
  ring closure, yield over several steps: 11%
